Activity calls are given as the source filed them. The rule behind the calls is not given here.
Columns and labels:
[1] = tested on: Bel-7402; assay: Cell cycle arrest in human Bel-7402 cells assessed as accumulation at G2/M phase at 2 uM measured after 24 hrs by propidium iodide staining based flow cytometry (reference value: 30.29%); type: functional
[2] = Clearance in ICR mouse at 10 mg/kg, iv; type: ADME, organism-based; conditions: in vivo
[3] = Acute toxicity in ICR mouse assessed as change in blood urea nitrogen level at 100 mg/kg, ip measured after 6 days; type: organism-based; conditions: in vivo, 144 h, time 6 day
[4] = Cmax in ICR mouse at 10 mg/kg, iv; type: ADME, organism-based; parameters: dose 10 mg/kg, route iv; conditions: in vivo
[5] = Acute toxicity in ICR mouse assessed as pathological change in liver at 100 mg/kg, ip measured after 6 days; type: organism-based; conditions: in vivo, 144 h, time 6 day
[6] = Acute toxicity in ICR mouse assessed as change in ALT level at 100 mg/kg, ip measured after 6 days; type: organism-based; conditions: in vivo, 144 h, time 6 day
[7] = tested on: HepG2; assay: Antiproliferative activity against human HepG2 cells measured after 72 hrs by MTT assay; type: functional, cell-based; conditions: HepG2, 72 h
[8] = tested on: HeLa; assay: Antiproliferative activity against human HeLa cells measured after 72 hrs by MTT assay; type: functional, cell-based
[9] = tested on: HepG2; assay: Induction of apoptosis in human HepG2 cells assessed as viable cells at 0.8 uM measured after 48 hrs by Annexin V-FITC/propidium iodide staining based flow cytometry (reference value: 94.5%); type: functional; conditions: read-out: Activity
[10] = tested on: Bel-7402; assay: Cell cycle arrest in human Bel-7402 cells assessed as accumulation at G2/M phase at 0.5 uM measured after 24 hrs by propidium iodide staining based flow cytometry (reference value: 30.29%); type: functional
[11] = tested on: HepG2; assay: Antitumor activity against human HepG2 cells xenografted in BALB/c nude mouse assessed as reduction in Ki-67 expression at 5 to 10 mg/kg, ip administered once daily for 16 days measured post-last dose by immunohistochemical analysis; type: functional, organism-based; conditions: dose 5-10 mg/kg, time 16.0 day
[12] = tested on: HepG2; assay: Induction of apoptosis in human HepG2 cells assessed as viable cells at 0.4 uM measured after 48 hrs by Annexin V-FITC/propidium iodide staining based flow cytometry (reference value: 94.5%); type: functional; conditions: read-out: Activity
[13] = tested on: HepG2; assay: Antiproliferative activity against human HepG2 cells assessed as cell growth inhibition at 1 uM measured after 72 hrs by MTT assay relative to control; type: functional; conditions: read-out: GI
[14] = Acute toxicity in ICR mouse assessed as pathological change in spleen at 100 mg/kg, ip measured after 6 days; type: organism-based; conditions: in vivo, 144 h, time 6 day
[15] = Acute toxicity in ICR mouse assessed as change in urea level at 100 mg/kg, ip measured after 6 days; type: organism-based; conditions: in vivo, 144 h, time 6 day
[16] = Terminal half life in ICR mouse at 10 mg/kg, iv; type: ADME, organism-based; conditions: in vivo, read-out: beta t1/2 (converted)
[17] = tested on: Bel-7402; assay: Cell cycle arrest in human Bel-7402 cells assessed as accumulation at G1 phase at 2 uM measured after 24 hrs by propidium iodide staining based flow cytometry (reference value: 38.72%); type: functional
[18] = Acute toxicity in ICR mouse assessed as change in AST level at 100 mg/kg, ip measured after 6 days; type: organism-based; conditions: in vivo, 144 h, time 6 day
[19] = tested on: HepG2; assay: Cell cycle arrest in human HepG2 cells assessed as accumulation at G2/M phase at 0.2 uM measured after 24 hrs by propidium iodide staining based flow cytometry (reference value: 19.93%); type: functional
[20] = tested on: HepG2; assay: Induction of apoptosis in human HepG2 cells assessed as late apoptotic cells at 0.4 uM measured after 48 hrs by Annexin V-FITC/propidium iodide staining based flow cytometry (reference value: 1.66%); type: functional
[21] = Acute toxicity in ICR mouse assessed as body weight loss at 100 mg/kg, ip measured for 6 days; type: organism-based; conditions: in vivo, 144 h, time 6 day
[22] = Acute toxicity in ICR mouse assessed as pathological change in heart at 100 mg/kg, ip measured after 6 days; type: organism-based; conditions: in vivo, 144 h, time 6 day
[23] = tested on: Bel-7402; assay: Cell cycle arrest in human Bel-7402 cells assessed as accumulation at G2/M phase at 1 uM measured after 24 hrs by propidium iodide staining based flow cytometry (reference value: 30.29%); type: functional
[24] = tested on: Bel-7402; assay: Cell cycle arrest in human Bel-7402 cells assessed as accumulation at G1 phase at 1 uM measured after 24 hrs by propidium iodide staining based flow cytometry (reference value: 38.72%); type: functional
[25] = tested on: Bel-7402; assay: Inhibition of colony formation in human Bel-7402 cells assessed as reduction in colony size at 0.5 to 2 uM treated every 3 days for 14 days by crystal violet staining based microscopy; type: functional, cell-based; conditions: dose 0.5-2 µM, time 14.0 day
[26] = Acute toxicity in ICR mouse assessed as pathological change in lung at 100 mg/kg, ip measured after 6 days; type: organism-based; conditions: in vivo, 144 h, time 6 day
[27] = tested on: HepG2; assay: Induction of apoptosis in human HepG2 cells assessed as early apoptotic cells at 0.8 uM measured after 48 hrs by Annexin V-FITC/propidium iodide staining based flow cytometry (reference value: 1.81%); type: functional
[28] = Toxicity in human HepG2 cells xenografted BALB/c nude mouse assessed as change in body weight at 5 to 10 mg/kg, ip administered once daily for 16 days measured 3 times per week during compound dosing; type: organism-based; conditions: in vivo, 384 h, dose 5-10 mg/kg, time 16 day
[29] = tested on: HepG2; assay: Induction of apoptosis in human HepG2 cells assessed as early apoptotic cells at 0.4 uM measured after 48 hrs by Annexin V-FITC/propidium iodide staining based flow cytometry (reference value: 1.81%); type: functional
[30] = tested on: HepG2; assay: Antitumor activity against human HepG2 cells xenografted in BALB/c nude mouse assessed as reduction in tumor weight at 5 to 10 mg/kg, ip administered once daily for 16 days measured post-last dose; type: functional, organism-based; conditions: dose 5-10 mg/kg, time 16.0 day
[31] = tested on: HepG2; assay: Cell cycle arrest in human HepG2 cells assessed as accumulation at G2/M phase at 0.8 uM measured after 24 hrs by propidium iodide staining based flow cytometry (reference value: 19.93%); type: functional
[32] = tested on: HepG2; assay: Induction of ROS generation in human HepG2 cells measured after 48 hrs by DCFH-DA probe based fluorescence microscopy; type: functional, cell-based; conditions: dose 0.2-0.8 µM, DDE = dose-dependent effect
[33] = target: ADP-ribosylation factor 1 (Homo sapiens) (UniProt P84077); assay: Binding affinity to Arf1 in human HepG2 cell lysate assessed as change in denaturation temperature at 25 uM measured after 3 mins by CETSA; type: subcellular
Sequence of ADP-ribosylation factor 1 (Homo sapiens) (P84077 whole entry): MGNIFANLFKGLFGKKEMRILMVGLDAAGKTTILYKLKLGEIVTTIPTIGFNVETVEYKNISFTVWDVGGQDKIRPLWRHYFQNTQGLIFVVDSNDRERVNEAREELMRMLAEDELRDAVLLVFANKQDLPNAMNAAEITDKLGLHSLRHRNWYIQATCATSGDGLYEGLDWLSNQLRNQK

[34] = tested on: HepG2; assay: Inhibition of colony formation in human HepG2 cells assessed as reduction in colony size at 0.2 to 0.8 uM treated every 3 days for 14 days by crystal violet staining based microscopy; type: functional, cell-based; conditions: dose 0.2-0.8 µM, time 14.0 day
[35] = tested on: HepG2; assay: Induction of apoptosis in human HepG2 cells assessed as late apoptotic cells at 0.8 uM measured after 48 hrs by Annexin V-FITC/propidium iodide staining based flow cytometry (reference value: 1.66%); type: functional
[36] = Toxicity in human HepG2 cells xenografted BALB/c nude mouse assessed as adverse effect at 5 to 10 mg/kg, ip administered once daily for 16 days; type: organism-based; conditions: in vivo, 384 h, dose 5-10 mg/kg, time 16 day
[37] = tested on: HepG2; assay: Induction of apoptosis in human HepG2 cells assessed as increase in cleaved caspase-3 expression at 0.2 to 0.8 uM measured after 48 hrs by Western blot analysis; type: functional, cell-based; conditions: dose 0.2-0.8 µM

Structure (SMILES): C[C@H]1CCC/C=C/[C@@H]2C[C@H](O)C[C@H]2[C@H](OC(=O)/C=C/c2ccc(N(C)C)cc2)/C=C/C(=O)O1
- Activity [1]: 18.82%
- clearance [2]: 42.5 mL/min/kg
- Activity [3]: Non-Toxic
- Cmax [4]: 14400 ng/mL
- Activity [5]: Non-Toxic
- Activity [6]: Non-Toxic
- IC50 [7]: 290 nM
- IC50 [8]: 860 nM
- viability at 0.8 µM [9]: 54.4%
- Activity [10]: 27.62%
- Activity [11]: Active
- viability at 0.4 µM [12]: 53.1%
- inhibition of growth at 1 µM [13]: 92.1%
- Activity [14]: Non-Toxic
- Activity [15]: Non-Toxic
- half-life [16]: 125 min
- Activity [17]: 60.5%
- Activity [18]: Non-Toxic
- Activity [19]: 22.32%
- Activity [20]: 3.9%
- Activity [21]: Toxic
- Activity [22]: Non-Toxic
- Activity [23]: 26.22%
- Activity [24]: 54.21%
- inhibition [25]: Active
- Activity [26]: Non-Toxic
- Activity [27]: 1.49%
- Activity [28]: Non-Toxic
- Activity [29]: 1.45%
- Activity [30]: Active
- Activity [31]: 15.85%
- Activity [32]: Dde
- Activity [33]: Active
- inhibition [34]: Active
- Activity [35]: 4.24%
- Activity [36]: Non-Toxic
- Activity [37]: Active

Source: ChEMBL document CHEMBL5113500, “New brefeldin A-cinnamic acid ester derivatives as potential antitumor agents: Design, synthesis and biological evaluation” (Eur J Med Chem, 2022)
